Measurements as given in publication PMC9721025, “Pharmacokinetic study of the main components of Tanreqing capsules and Tanreqing injections in beagles by liquid chromatography–tandem mass spectrometry” (Chinese Medicine, 2022).
Like-named read-outs stand apart in the source and are kept apart here.

Tests used:
[1] = Pharmacokinetics in beagles, multiple-dose regimen (once per day for 7 days) of TRQI or TRQC, plasma LC-MS/MS; type: in vivo; details: beagle, dog; for Cmax at 7 days / Tmax at 7 days / half-life at 7 days: mean
Description: (§1) 100 μL plasma sample was drawn and transferred to 1.5 mL centrifuge tube prior to 300 μL protein precipitant (3:1 [v/v] methanol/acetonitrile, containing 0.1% formic acid and 100 ng/mL IS) was added, and then the sample was vortex-mixed for 3 min. The mixture was centrifuged at 20,000 ×g for 10 min, and 100 μL supernatant was transferred to the injection vial and analyzed directly by LC–MS/MS.
(§2) This study was carried out in six beagles (three males and three females, 9.0–12.0 kg each), that were purchased from Junda Pet Hospital (Shanghai, China). This experimental protocol was approved by the Experimental Animal Ethics Committee of the Naval Military Medical University (Shanghai, China).
After the end of the single-dose experiment, the dogs in group one were given 0.5 mL/kg injection of TRQI once per day for 7 days following the wash out period, and the dogs in group two were given 0.09 g/kg TRQC once per day for 7 days. After the seventh administration, blood samples were collected at 0, 10, 20, and 40 min and then at 1, 1.5, 2, 2.5, 3, 4, 6, 8, 12, and 24 h (a total of 14 time points) and were processed as described in “Single-dose regimen” section. The resulting plasma samples were used to determine the steady-state plasma concentration of TRQI and TRQC. A crossover study was again carried out in both groups, as described in “Single-dose regimen” section, after a 7-day washing period.
(§3) All data obtained were analyzed using Drug and Statistics (DAS) 2.0 software (Chinese Society of Pharmacology), and a non-compartment analysis was used to calculate plasma pharmacokinetic parameters. The principal components of TRQI and TRQC were compared with an analysis of variance (ANOVA) and/or a two-tailed student-t test.

[2] = cited from earlier work; for t1/2: Tanreqing injection
[3] = Stability of analytes in dog plasma (QC samples); type: in vitro ADME
Description: The stock solutions of all analytes were further mixed and diluted with methanol/water (10:90, v/v) solution to prepare the working solutions. […] The QC samples were stored in a refrigerator at – 80 °C until retrieval (see Additional file 1). The stability, which includes short-term stability (6 h at room temperature), long-term stability (− 80 °C for 30 days in the refrigerator), and freeze–thaw stability (three cycles from − 80 °C to room temperature), were assessed using QC samples at three concentration levels in three replicates. […] Similarly, there were no obvious effects on the analysis results of the samples with respect to short-term stability or long-term storage.

[4] = Pharmacokinetics in beagles, single-dose regimen of TRQI (i.v.) or TRQC (oral), plasma LC-MS/MS; type: in vivo, beagle; details: for AUC(0-t) / Cmax / Tmax / half-life: beagle, dog, plasma; for AUC(0-t): read-out: AUC0–24 h; for Cmax / Tmax / half-life: mean of six beagles
Description: as §1, §2
The six healthy beagles were divided into two groups: beagles 1–3 were all male and were assigned to the first group, and beagles 4–6 were all females and assigned to the second group. The two-cycle, crossover study was designed with a 7-day wash out period. For the single-administration process, the dogs in the first group were injected intravenously with 0.5 mL/kg TRQI (one-third of the normal daily dose), and blood samples were collected at 0, 5, 10, 15, 20, 30, and 45 min and then at 1, 2, 4, 6, 8, 12, and 24 h (a total of 14 time points) after injection. For each blood sample, 1 mL of blood was collected from the forelimb vein in heparin-treated tubes. The dogs in the second group were orally administrated 0.09 g/kg TRQC (one-third of the normal daily dose, and blood samples were collected in the same manner at 0, 10, 20, and 40 min and then at 1, 1.5, 2, 2.5, 3, 4, 6, 8, 12, and 24 h (a total of 14 time points). All blood samples were centrifuged at 4000 × g for 5 min, and each supernatant was collected and aliquoted. After a 7-day wash out period, the dogs in each group were administrated the other Tanreqing formulation in a crossover design, and blood samples were collected and processed in the same way.
as §3

[5] = both sexes, iv, TRQI 0.5 mL/kg once per day for 7 days
[6] = both sexes, po, TRQC 0.09 g/kg once per day for 7 days
[7] = n = 3, high QC: nominal 200 ng/mL baicalin, 1000 ursodeoxycholic acid, 100 chenodeoxycholic acid and chlorogenic acid
[8] = n = 3, low QC: nominal 4 ng/mL baicalin, 20 ursodeoxycholic acid, 2 chenodeoxycholic acid and chlorogenic acid
[9] = n = 3, middle QC: nominal 20 ng/mL baicalin, 100 ursodeoxycholic acid, 10 chenodeoxycholic acid and chlorogenic acid
[10] = both sexes, iv, single i.v. dose of TRQI 0.5 mL/kg
[11] = both sexes, single oral dose of TRQC 0.09 g/kg

O=C(O)[C@H]1O[C@@H](Oc2cc3oc(-c4ccccc4)cc(=O)c3c(O)c2O)[C@H](O)[C@@H](O)[C@@H]1O [Baicalin, baicalin]
AUC(0-inf) ([1]; both sexes, iv, 0.5 mL/kg, TRQI 0.5 mL/kg for 7 days, Mean): 548 ng·h/mL | AUC(0-t) ([1]; both sexes, iv, 0.5 mL/kg, TRQI 0.5 mL/kg for 7 days, Mean, read-out: AUC0–24 h): 395 ng·h/mL | Cmax at 7 days [1, 5]: 1370 ng/mL | Tmax at 7 days [1, 5]: 0.11 h | half-life at 7 days [1, 5]: 5.54 h | AUC(0-inf) ([1]; both sexes, po, 0.09 g/kg, TRQC 0.09 g/kg for 7 days, Mean): 142 ng·h/mL | AUC(0-t) ([1]; both sexes, po, 0.09 g/kg, TRQC 0.09 g/kg for 7 days, Mean, read-out: AUC0–24 h): 107 ng·h/mL | Cmax at 7 days [1, 6]: 12.2 ng/mL | Tmax at 7 days [1, 6]: 7.25 h | half-life at 7 days [1, 6]: 12.1 h | AUC(0-inf) ([1]; female, iv, 0.5 mL/kg, TRQI 0.5 mL/kg for 7 days, beagle No. 4): 670 ng·h/mL | AUC(0-t) ([1]; female, iv, 0.5 mL/kg, TRQI 0.5 mL/kg for 7 days, beagle No. 4, read-out: AUC0–24 h): 527 ng·h/mL | AUC(0-inf) ([1]; female, iv, 0.5 mL/kg, TRQI 0.5 mL/kg for 7 days, beagle No. 5): 711 ng·h/mL | AUC(0-t) ([1]; female, iv, 0.5 mL/kg, TRQI 0.5 mL/kg for 7 days, beagle No. 5, read-out: AUC0–24 h): 526 ng·h/mL | AUC(0-inf) ([1]; female, iv, 0.5 mL/kg, TRQI 0.5 mL/kg for 7 days, beagle No. 6): 1290 ng·h/mL | AUC(0-t) ([1]; female, iv, 0.5 mL/kg, TRQI 0.5 mL/kg for 7 days, beagle No. 6, read-out: AUC0–24 h): 865 ng·h/mL | AUC(0-inf) ([1]; female, po, 0.09 g/kg, TRQC 0.09 g/kg for 7 days, beagle No. 4): 88.3 ng·h/mL | AUC(0-t) ([1]; female, po, 0.09 g/kg, TRQC 0.09 g/kg for 7 days, beagle No. 4, read-out: AUC0–24 h): 68 ng·h/mL | AUC(0-inf) ([1]; female, po, 0.09 g/kg, TRQC 0.09 g/kg for 7 days, beagle No. 5): 398 ng·h/mL | AUC(0-t) ([1]; female, po, 0.09 g/kg, TRQC 0.09 g/kg for 7 days, beagle No. 5, read-out: AUC0–24 h): 245 ng·h/mL | AUC(0-inf) ([1]; female, po, 0.09 g/kg, TRQC 0.09 g/kg for 7 days, beagle No. 6): 44.3 ng·h/mL | AUC(0-t) ([1]; female, po, 0.09 g/kg, TRQC 0.09 g/kg for 7 days, beagle No. 6, read-out: AUC0–24 h): 32.5 ng·h/mL | AUC(0-inf) ([1]; male, iv, 0.5 mL/kg, TRQI 0.5 mL/kg for 7 days, beagle No. 1): 45.8 ng·h/mL | AUC(0-t) ([1]; male, iv, 0.5 mL/kg, TRQI 0.5 mL/kg for 7 days, beagle No. 1, read-out: AUC0–24 h): 42.6 ng·h/mL | AUC(0-inf) ([1]; male, iv, 0.5 mL/kg, TRQI 0.5 mL/kg for 7 days, beagle No. 2): 534 ng·h/mL | AUC(0-t) ([1]; male, iv, 0.5 mL/kg, TRQI 0.5 mL/kg for 7 days, beagle No. 2, read-out: AUC0–24 h): 370 ng·h/mL | AUC(0-inf) ([1]; male, iv, 0.5 mL/kg, TRQI 0.5 mL/kg for 7 days, beagle No. 3): 37.6 ng·h/mL | AUC(0-t) ([1]; male, iv, 0.5 mL/kg, TRQI 0.5 mL/kg for 7 days, beagle No. 3, read-out: AUC0–24 h): 36.8 ng·h/mL | AUC(0-inf) ([1]; male, po, 0.09 g/kg, TRQC 0.09 g/kg for 7 days, beagle No. 1): 80.5 ng·h/mL | AUC(0-t) ([1]; male, po, 0.09 g/kg, TRQC 0.09 g/kg for 7 days, beagle No. 1, read-out: AUC0–24 h): 79.6 ng·h/mL | AUC(0-inf) ([1]; male, po, 0.09 g/kg, TRQC 0.09 g/kg for 7 days, beagle No. 2): 164 ng·h/mL | AUC(0-t) ([1]; male, po, 0.09 g/kg, TRQC 0.09 g/kg for 7 days, beagle No. 2, read-out: AUC0–24 h): 149 ng·h/mL | AUC(0-inf) ([1]; male, po, 0.09 g/kg, TRQC 0.09 g/kg for 7 days, beagle No. 3): 74.3 ng·h/mL | AUC(0-t) ([1]; male, po, 0.09 g/kg, TRQC 0.09 g/kg for 7 days, beagle No. 3, read-out: AUC0–24 h): 69.7 ng·h/mL | t1/2 ([2]; Hu's study): 0.8 h | t1/2 ([2]; another study): 3.6 h | clearance rate ([2]; rat, TRQI): 24.3 mL/min/kg | volume of distribution ([2]; rat, TRQI): 1.07 L/kg | Freeze-thaw stability (3 cycles) Mean ± S.D. concentration [3, 7]: 202.81 ± 10.87 ng/mL | Long-term stability (30 days at – 80 °C) Mean ± S.D. concentration [3, 7]: 175.01 ± 4.57 ng/mL | Short-term stability (6 h at room temperature) Mean ± S.D concentration [3, 7]: 182.83 ± 7.72 ng/mL | Freeze-thaw stability (3 cycles) Mean ± S.D. concentration [3, 8]: 3.97 ± 0.36 ng/mL | Long-term stability (30 days at – 80 °C) Mean ± S.D. concentration [3, 8]: 3.50 ± 0.07 ng/mL | Short-term stability (6 h at room temperature) Mean ± S.D concentration [3, 8]: 4.01 ± 0.31 ng/mL | Freeze-thaw stability (3 cycles) Mean ± S.D. concentration [3, 9]: 17.88 ± 0.92 ng/mL | Long-term stability (30 days at – 80 °C) Mean ± S.D. concentration [3, 9]: 17.47 ± 0.42 ng/mL | Short-term stability (6 h at room temperature) Mean ± S.D concentration [3, 9]: 18.43 ± 0.75 ng/mL | oral availability ([4]; TRQC in dogs): small | AUC(0-t) ([4]; both sexes, iv, 0.5 mL/kg, single TRQI 0.5 mL/kg, Mean): 44.4 ng·h/mL | Cmax [4, 10]: 1050 ng/mL | Tmax [4, 10]: 0.08 h | half-life [4, 10]: 6.75 h | AUC(0-t) ([4]; both sexes, po, 0.09 g/kg, single TRQCs 0.09 g/kg, Mean): 14.1 ng·h/mL | Cmax [4, 11]: 4.79 ng/mL | Tmax [4, 11]: 3.78 h | half-life [4, 11]: 4.97 h | AUC(0-t) ([4]; female, iv, 0.5 mL/kg, single TRQI 0.5 mL/kg, beagle No 4): 161 ng·h/mL | AUC(0-t) ([4]; female, iv, 0.5 mL/kg, single TRQI 0.5 mL/kg, beagle No 5): 1.98 ng·h/mL | AUC(0-t) ([4]; female, iv, 0.5 mL/kg, single TRQI 0.5 mL/kg, beagle No 6): 39.9 ng·h/mL | AUC(0-t) ([4]; female, po, 0.09 g/kg, single TRQCs 0.09 g/kg, beagle No 4): 15.6 ng·h/mL | AUC(0-t) ([4]; female, po, 0.09 g/kg, single TRQCs 0.09 g/kg, beagle No 5): 1.15 ng·h/mL | AUC(0-t) ([4]; female, po, 0.09 g/kg, single TRQCs 0.09 g/kg, beagle No 6): 3.38 ng·h/mL | AUC(0-t) ([4]; male, iv, 0.5 mL/kg, single TRQI 0.5 mL/kg, beagle No 1): 44.5 ng·h/mL | AUC(0-t) ([4]; male, iv, 0.5 mL/kg, single TRQI 0.5 mL/kg, beagle No 2): 18.7 ng·h/mL | AUC(0-t) ([4]; male, iv, 0.5 mL/kg, single TRQI 0.5 mL/kg, beagle No 3): 0.47 ng·h/mL | AUC(0-t) ([4]; male, po, 0.09 g/kg, single TRQCs 0.09 g/kg, beagle No 1): 16 ng·h/mL | AUC(0-t) ([4]; male, po, 0.09 g/kg, single TRQCs 0.09 g/kg, beagle No 2): 36.4 ng·h/mL | AUC(0-t) ([4]; male, po, 0.09 g/kg, single TRQCs 0.09 g/kg, beagle No 3): 11.8 ng·h/mL
